This note sets out measurements from patent US12403169B2, “Compositions and methods related to Rhamnus prinoides (gesho) extract for the inhibition of polymicrobial biofilm formation” (GEORGIA STATE UNIVERSITY RESEARCH FOUNDATION, INC., priority 2018, dated 2025).

The subject of assay [1] is biofilm. Put plainly: Screen of other compounds for anti-biofilm effect. Type of assay: cell-based.
Assay [2] has as its system Staphylococcus aureus biofilm formation. Put plainly: microbe, parasite or virus in culture. The following applies: for effect on biofilm formation: evaluated at 0.8% and 3%; for IC50 / CC50: Staphylococcus aureus; for IC50: 24 h, read-out: BP50; for CC50: read-out: category based on BP50 and LC50; for anti-biofilm activity (words): pure compounds. The protocol: Staphylococcus aureus and Streptococcus mutans biofilms were grown in Luria-Bertani (LB) broth and brain-heart infusion (BHI) medium containing 0.5% sucrose, respectively. Biofilm formation was assessed using a polystyrene 96 well microtiter plate crystal violet assay. Overnight broth cultures were diluted to an initial optical density (OD600) of 0.01 in fresh media and combined with gesho extract to obtain a final concentration of 7 mg/ml. Treatments were then serially diluted to final extract concentrations of 5, 3, 1, 0.5 and 0.25 mg/ml. Negative controls consisted of cells diluted to an initial optical density (OD600) of 0.01 in growth media without plant extract. 100 μl of treated and untreated samples were added to each well of a microtiter plate and incubated at 37° C. for 24 hours. After 24 hours, planktonic cells and spent growth media were removed from each well and the plate was washed three times in sterile water. Biofilms were then stained with 150 μl of 0.1% crystal violet for 15 minutes at 200 rpm. Excess dye was removed via washing in sterile water and the plate was allowed to air dry.
Staphylococcus aureus and Pseudomonas aeruginosa biofilms were grown in LB broth and PBM-glucose, respectively. Biofilm formation was assessed using a polystyrene 96 well microtiter plate crystal violet assay. […] DMSO was added to solubilize the treatments. Negative controls consisted of cells diluted to an initial OD600 of 0.01 in growth media without treatment. 100 μl of treated and untreated samples were added to each well of a microtiter plate and incubated at 37° C. for 24 h. After 24 h, planktonic cells and spent growth media were removed from each well and the plate was washed 3 times in sterile water. Biofilms were then stained with 150 μl of 0.1% crystal violet for 15 min at 200 rpm. Excess dye was removed via washing in sterile water and the plate was allowed to air dry.
Biofilm formation was assessed using a polystyrene 96 well microtiter plate crystal violet assay.^23 Overnight broth cultures were diluted to an initial OD600 of 0.01 in fresh LB and combined with a target compound to obtain a final concentration of 7 mg/ml. Treatments were then serially diluted to final extract concentrations of 5, 3, 1, 0.5 and 0.25 mg/ml. No vehicles were added to solubilize the treatments. Untreated cells served as negative controls. 100 μl of treated and untreated samples were added to each well of a microtiter plate and incubated at 37° C. for 24 h. After 24 h, planktonic cells and spent growth media were removed from each well and the plate was washed 3 times in sterile water. Biofilms were then stained with 150 μl of 0.1% crystal violet for 15 min at 200 rpm. Excess dye was removed via washing in sterile water and the plate was allowed to air dry. […] The molarity of each treatment was calculated using excel.

Assay [3] has as its system Staphylococcus aureus biofilms. The assay is described as follows: Staphylococcus aureus biofilm killing assay (resazurin). The format is cell-based, Staphylococcus aureus ATCC 6538. The following applies: combination with vancomycin at its MBEC. On the procedure: Staphylococcus aureus biofilms were formed as described above. Staphylococcus aureus biofilms were grown in LB broth. […] […]. Negative controls consisted of 100 μL of fresh LB without compound or antibiotic. […] 100 μL of 10 μg/mL resazurin in LB was added to each biofilm and the plate was statically incubated at 37° C. for 3 hrs. During incubation, fluorescence intensity was measured at λex=570 nm λem=590 nm every 6 minutes using an Enspire fluorescence plate reader. Data was normalized to the emission at t=0 and the rates of resazurin conversion to resorufin was calculated to identify the time at which maximum fluorescence was achieved.

Assay [4] has as its system Staphylococcus aureus growth. Put plainly: Staphylococcus aureus growth curve. Type of assay: cell-based, Staphylococcus aureus ATCC 6538. The protocol:
2 mL of each treatment was added to 19 culture tubes and the samples were incubated for 24 h at 37° C. with shaking at 200 rpm. 1 mL of each sample was transferred to a cuvette and the absorbance measurements at 600 nm were taken every hour for 9 hours. 24 h measurements were taken the following day. Untreated samples and samples containing 1.6 μg/mL vancomycin served as a negative and positive controls, respectively. Growth rates were calculated using the slope of the log phase of growth (t=0 h and t=4 h).

For assay [5], the system named is Staphylococcus aureus hydrophobicity. The assay is described as follows: Hydrophobicity test (microbial adherence to hydrocarbon). Type of assay: cell-based. The settings on record: 0.2 or 0.4 mg/mL, 24 h. On the procedure:
Hydrophobicity analysis was conducted according to Ciccio, et al., 2015 with a few modifications. Three milliliters of Staphylococcus aureus cultures were grown in the presence of 4-ethoxybenzoic acid (0.2 or 0.4 mg/mL) or methyl gallate (0.2 or 0.4 mg/mL) for 24 h at 37° C. with shaking at 200 rpm. Cultures were diluted to an OD600 of 0.6 and washed with 1 mL PBS. 5 mL of the inoculum was produced, 1 mL was removed for plating on growth agar and 1 mL of hexadecane was applied to the air-liquid interface or the remaining 4 mL. Hexadecane samples were vortexed for 1 min and the phases allowed to separate for 15 minutes at room temperature. 1 mL of the aqueous layer was removed and plated on growth agar. Agar plates were incubated at 37° C. overnight and plate counts were conducted the following day. Results were interpreted as the percent of cells present in the aqueous layer prior to (A0) and after (A1) the addition of hexadecane [(A0−A1)/A0]*100.

Assay [6] has as its system Staphylococcus aureus log-phase planktonic cells. The assay is described as follows: Log-phase cell antimicrobial assay. The format is cell-based, Staphylococcus aureus ATCC 6538. The following applies: pure compounds, with or without 1% DMSO. The protocol:
Bacteria were inoculated in 20 ml of growth media at an initial optical density (OD600) of 0.01 and incubated at 37° C., 200 rpm until log-phase was reached. One milliliter of log-phase cells was transferred to 1.5 ml microfuge tubes and growth media removed via centrifugation. Pelleted cells were washed twice with phosphate buffered saline (PBS) before resuspending the pellets in 1 ml of extract dissolved in PBS. Treatments were incubated at 37° C. for 1 hour then serially diluted in PBS and radially plated on growth agar.
Bacteria were inoculated in 20 ml of growth media at an initial optical density (OD600) of 0.01 and incubated for 4±1 h at 37° C. with shaking at 200 rpm until log phase (OD600≈0.35) was reached. 1 ml of log-phase cells was transferred to 1.5 ml microfuge tubes and the growth medium was removed via centrifugation. Pelleted cells were washed twice with phosphate buffered saline (PBS) before resuspending the pellets in 1 ml of 4-ethoxybenzoic acid or methyl gallate with or without vancomycin dissolved in PBS. Treatments were incubated at 37° C. for 1 h and then serially diluted in PBS and radially plated on growth agar.

Assay [7] relates to Staphylococcus aureus stationary phase planktonic cells. The following applies: pure compounds, with or without 1% DMSO. The protocol: To assess the viability of stationary phase planktonic cell, a growth agar based assay was conducted. Spent media containing stationary phase planktonic cells was collected after a biofilm formation assay. Collected cells were serially diluted in PBS and dilutions were radially plated in 10 μl volumes on growth medium. Agar plates were incubated at 37° C. overnight to allow for colony formation. Plate counts were used to assess viability.
To assess the viability of stationary phase planktonic cells, a growth agar-based assay was conducted. Spent media containing stationary phase planktonic cells were collected from microtiter plates after the conclusion of each biofilm formation assay. The collected cells were serially diluted (1:10) in PBS and dilutions were radially plated in 10 μl volumes on growth medium. Agar plates were incubated at 37° C. overnight to allow for colony formation and plate counts were used to assess viability. Colony forming units per milliliter of culture (CFU/mL) was calculated by dividing the colony counts (C) by the volume added (V) multiplied by the dilution factor (D): […]

Consider `CCCCCCCCC(C)O` (stereo not shown) [2-decanol], for which the “anti-biofilm effect” value in assay [1] is listed as “anti-biofilm effect”.
`CCCC(C)=O` [2-pentanone, reference compound]: the “effect on biofilm formation” value in assay [2] is “Neither benzoic acid nor 2-pentanone had a statistically significant effect on biofilm formation”.
`O=C(O)c1cccc(O)c1` [3-hydroxybenzoic acid]: in assay [2], the IC50 came out at 9.6 mM and the CC50 is less than 15 mM.
As for `CCOc1ccc(C(=O)O)cc1` [4-ethoxybenzoic acid], the “synergism with vancomycin in biofilm killing” value in assay [3] is reported as “synergistic effects”. Besides, the IC50 in assay [2] worked out at 1.6 mM. For the same compound, the CC50 in assay [2] was less than 7.5 mM. Further, the results for the Percent attenuation in assay [4] (1.2 mM) and in assay [4] (2.4 mM) were 12% and 47%, respectively. The Growth rate in assay [4] (1.2 mM, t=0 to t=4 h) amounted to 0.97 log replications/hr; in assay [4] (2.4 mM, t=0 to t=4 h) it was 0.58 log replications/hr. For the same compound, the “hydrophobicity of S. aureus” value in assay [5] is “decreased the hydrophobicity”.
Take `CCOC(=O)c1ccc(OCC)cc1` [EEB, ethyl 4-ethoxybenzoate]: in assay [6], the “antibacterial activity against log phase cells” value is reported as “did not show antibacterial activity”. The “antibacterial activity against stationary phase cells” value in assay [7] is reported as “did not show antibacterial activity”. In assay [2], the CC50 is greater than 7.5 mM and the “anti-biofilm activity (words)” value is reported as “significant anti-biofilm activity”. Also, the “effect of DMSO on anti-biofilm activity” value in assay [2] (combined with 1% DMSO) is given as “presence of DMSO increased the anti-biofilm activity of EEB”. The “anti-biofilm activity (words)” value in assay [2] (listed as ethyl 4-ethoxybenzoate) is reported as “anti-biofilm activity”.
On to `O=C(O)c1ccccc1` [benzoic acid, reference compound], for which the “effect on biofilm formation” value in assay [2] is recorded as “Neither benzoic acid nor 2-pentanone had a statistically significant effect on biofilm formation”.
With `CCOC(=O)c1cc(O)c(O)c(O)c1` [ethyl gallate], in assay [2], the IC50 stood at 6.7 mM and the CC50 was less than 15 mM.
With `O=C(O)c1cc(O)c(O)c(O)c1` [gallic acid], in assay [2], the IC50 turned out to be 17.3 mM and the CC50 was greater than 7.5 mM.
As to `O=C(O)c1cc(O)ccc1O` [gentisic acid, 2,5-dihydroxybenzoic acid], the IC50 in assay [2] was found to be 9.2 mM.
As for `COC(=O)c1cc(O)c(O)c(O)c1` [methyl gallate], the “synergism with vancomycin in biofilm killing” value in assay [3] was “did not exhibit synergism”. Moreover, the IC50 in assay [2] was 0.82 mM. Further, the CC50 in assay [2] is less than 7.5 mM. The Percent attenuation was determined as 30% in assay [4] (1.1 mM) and 46% in assay [4] (1.2 mM). Further, the Growth rate in assay [4] (1.1 mM, t=0 to t=4 h) amounted to 0.77 log replications/hr; in assay [4] (1.2 mM, t=0 to t=4 h), 0.59 log replications/hr. For the same compound, the “hydrophobicity of S. aureus” value in assay [5] is “decreased the hydrophobicity”.
`COC(=O)c1ccc(O)cc1` [methyl paraben, 4-hydroxybenzoic acid methyl ester] registered a Percent attenuation in assay [4] (5.2 mM) of 25%. For the same compound, in assay [4] (5.2 mM, t=0 to t=4 h), the Growth rate amounted to 0.83 log replications/hr.
Consider `O=C(O)c1ccc(O)cc1` [p-hydroxybenzoic acid, 4-hydroxybenzoic acid], for which, in assay [2], the IC50 stood at 8 mM and the CC50 is less than 15 mM.
The like results for `CCCOC(=O)c1cc(O)c(O)c(O)c1` [propyl gallate] were, in that order, 2.9 mM and less than 15 mM.
The like results for `O=C(O)c1ccc(O)c(O)c1` [protocatechuic acid, 3,4-dihydroxybenzoic acid] were, in that order, 14.4 mM and less than 15 mM.
The like results for `O=C(O)c1cccc(O)c1O` [pyrocatechuic acid, 2,3-dihydroxybenzoic acid] were, in that order, 4.8 mM and less than 15 mM.
For `O=C(O)c1ccccc1O` [salicylic acid, 2-hydroxybenzoic acid], in assay [2], the IC50 was determined as 38.5 mM and the CC50 is greater than 7.5 mM.
`CN[C@H](CC(C)C)C(=O)N[C@H]1C(=O)N[C@@H](CC(N)=O)C(=O)N[C@H]2C(=O)N[C@H]3C(=O)N[C@H](C(=O)N[C@H](C(=O)O)c4cc(O)cc(O)c4-c4cc3ccc4O)[C@H](O)c3ccc(c(Cl)c3)Oc3cc2cc(c3O[C@@H]2O[C@H](CO)[C@@H](O)[C@H](O)[C@H]2O[C@H]2C[C@](C)(N)[C@H](O)[C@H](C)O2)Oc2ccc(cc2Cl)[C@H]1O` [vancomycin, reference compound]: in assay [4] (1.1 μM, positive control), the Growth rate was determined as 0.0 log replications/hr and the Percent attenuation is on record as 100%.
